Results from PubChem BioAssay (NCI).
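Step 1: Grow cells in 96-well plates. Step 2: Expose to compound for 48 hours at 5 concentrations. Step 3: Interpolate endpoints linearly; if unreached, use highest concentration. Abbreviation: GI50, concentration required for 50% inhibition of growth. The concentration for full growth arrest is given as TGI.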

Legend:
Experiment in all cases: growth of human tumour cells (NCI), 48 h
786-0 renal = system: 786-0 renal
A498 renal = system: A498 renal
A549 NSCLC = system: A549 NSCLC
ACHN renal = system: ACHN renal
BT-549 breast = system: BT-549 breast
CAKI-1 renal = system: CAKI-1 renal
CCRF-CEM leukemia = system: CCRF-CEM leukemia
COLO 205 colon = system: COLO 205 colon
DU-145 prostate = system: DU-145 prostate
EKVX NSCLC = system: EKVX NSCLC
HCC-2998 colon = system: HCC-2998 colon
HCT-116 colon = system: HCT-116 colon
HCT-15 colon = system: HCT-15 colon
HL-60(TB) leukemia = system: HL-60(TB) leukemia
HOP-62 NSCLC = system: HOP-62 NSCLC
HOP-92 NSCLC = system: HOP-92 NSCLC
HS 578T breast = system: HS 578T breast
HT29 colon = system: HT29 colon
IGROV1 ovarian = system: IGROV1 ovarian
K-562 leukemia = system: K-562 leukemia
KM12 colon = system: KM12 colon
LOX IMVI melanoma = system: LOX IMVI melanoma
M14 melanoma = system: M14 melanoma
MALME-3M melanoma = system: MALME-3M melanoma
MCF7 breast = system: MCF7 breast
MDA-MB-231 breast = system: MDA-MB-231 breast
MDA-MB-435 = system: MDA-MB-435
MOLT-4 leukemia = system: MOLT-4 leukemia
NCI-H226 lung = system: NCI-H226 lung
NCI-H23 lung = system: NCI-H23 lung
NCI-H460 lung = system: NCI-H460 lung
NCI-H522 lung = system: NCI-H522 lung
NCI/ADR-RES ovarian = system: NCI/ADR-RES ovarian
OVCAR-3 ovarian = system: OVCAR-3 ovarian
OVCAR-4 ovarian = system: OVCAR-4 ovarian
OVCAR-5 ovarian = system: OVCAR-5 ovarian
OVCAR-8 ovarian = system: OVCAR-8 ovarian
PC-3 prostate = system: PC-3 prostate
RPMI-8226 leukemia = system: RPMI-8226 leukemia
RXF 393 renal = system: RXF 393 renal
SF-268 CNS = system: SF-268 CNS
SF-295 CNS = system: SF-295 CNS
SF-539 CNS = system: SF-539 CNS
SK-MEL-2 melanoma = system: SK-MEL-2 melanoma
SK-MEL-28 melanoma = system: SK-MEL-28 melanoma
SK-MEL-5 melanoma = system: SK-MEL-5 melanoma
SN12C renal = system: SN12C renal
SNB-19 CNS = system: SNB-19 CNS
SNB-75 CNS = system: SNB-75 CNS
SR leukemia = system: SR leukemia
SW-620 colon = system: SW-620 colon
T-47D breast = system: T-47D breast
TK-10 renal = system: TK-10 renal
U251 CNS = system: U251 CNS
UACC-257 melanoma = system: UACC-257 melanoma
UACC-62 melanoma = system: UACC-62 melanoma
UO-31 renal = system: UO-31 renal

## FC(F)(F)c1ccc(-c2cncn2-c2ccccc2)cc1
786-0 renal
  GI50: 10 µM
  TGI: 21.9 µM
A498 renal
  GI50: 12.9 µM
  TGI: 27.1 µM
A549 NSCLC
  GI50: 11.9 µM
  TGI: 27.5 µM
ACHN renal
  GI50: 3.68 µM
  TGI: 23 µM
BT-549 breast
  GI50: 15.1 µM
  TGI: 40.4 µM
CAKI-1 renal
  GI50: 4.71 µM
  TGI: > 100 µM
CCRF-CEM leukemia
  GI50: 2.84 µM
  TGI: 15.7 µM
COLO 205 colon
  GI50: 19.1 µM
  TGI: 47.1 µM
DU-145 prostate
  GI50: 6.28 µM
  TGI: 26.2 µM
EKVX NSCLC
  GI50: 17.1 µM
  TGI: 54.3 µM
HCC-2998 colon
  GI50: 12.3 µM
  TGI: 26.2 µM
HCT-116 colon
  GI50: 1.88 µM
  TGI: 16.3 µM
HCT-15 colon
  GI50: 18.1 µM
  TGI: > 100 µM
HL-60(TB) leukemia
  GI50: 12.7 µM
  TGI: 35.6 µM
HOP-62 NSCLC
  GI50: 2.72 µM
  TGI: 20.7 µM
HOP-92 NSCLC
  GI50: 2.89 µM
  TGI: 18.9 µM
HS 578T breast
  GI50: 16.4 µM
  TGI: 47.8 µM
HT29 colon
  GI50: 21.3 µM
  TGI: > 100 µM
IGROV1 ovarian
  GI50: 12.3 µM
  TGI: 38.6 µM
K-562 leukemia
  GI50: 20.9 µM
  TGI: 77.6 µM
KM12 colon
  GI50: 20.6 µM
  TGI: 70.8 µM
LOX IMVI melanoma
  GI50: 5.68 µM
  TGI: 23.2 µM
M14 melanoma
  GI50: 13 µM
  TGI: 27.1 µM
MALME-3M melanoma
  GI50: 21.1 µM
  TGI: 43.1 µM
MCF7 breast
  GI50: 22.7 µM
  TGI: > 100 µM
MDA-MB-231 breast
  GI50: 11.8 µM
  TGI: 28.6 µM
MDA-MB-435
  GI50: 24.4 µM
  TGI: 88.5 µM
MOLT-4 leukemia
  GI50: 3.9 µM
  TGI: 27.2 µM
NCI-H226 lung
  GI50: 10.5 µM
  TGI: 27.8 µM
NCI-H23 lung
  GI50: 10.4 µM
  TGI: 34.4 µM
NCI-H460 lung
  GI50: 16.9 µM
  TGI: > 100 µM
NCI-H522 lung
  GI50: 8.54 µM
  TGI: 25.2 µM
NCI/ADR-RES ovarian
  GI50: 7.13 µM
  TGI: 30.2 µM
OVCAR-3 ovarian
  GI50: 16.6 µM
  TGI: 38.9 µM
OVCAR-4 ovarian
  GI50: 36 µM
  TGI: > 100 µM
OVCAR-5 ovarian
  GI50: 23.5 µM
  TGI: 79.4 µM
OVCAR-8 ovarian
  GI50: 13.6 µM
  TGI: 33.8 µM
PC-3 prostate
  GI50: 13 µM
  TGI: 35.6 µM
RPMI-8226 leukemia
  GI50: 5.75 µM
  TGI: 27.2 µM
RXF 393 renal
  GI50: 16.6 µM
  TGI: 32.2 µM
SF-268 CNS
  GI50: 36.6 µM
  TGI: > 100 µM
SF-295 CNS
  GI50: 19.3 µM
  TGI: > 100 µM
SF-539 CNS
  GI50: 15.6 µM
  TGI: 41.8 µM
SK-MEL-2 melanoma
  GI50: 18.2 µM
  TGI: 37.9 µM
SK-MEL-28 melanoma
  GI50: 39.1 µM
  TGI: > 100 µM
SK-MEL-5 melanoma
  GI50: 13 µM
  TGI: 26.9 µM
SN12C renal
  GI50: 10.4 µM
  TGI: 23.5 µM
SNB-19 CNS
  GI50: 10.4 µM
  TGI: 38.5 µM
SNB-75 CNS
  GI50: 15.3 µM
  TGI: 40.7 µM
SR leukemia
  GI50: 1.18 µM
  TGI: 7.89 µM
SW-620 colon
  GI50: 4.03 µM
  TGI: 57.1 µM
T-47D breast
  GI50: 15.5 µM
  TGI: > 100 µM
TK-10 renal
  GI50: 24.2 µM
  TGI: > 100 µM
U251 CNS
  GI50: 6.89 µM
  TGI: 30.6 µM
UACC-257 melanoma
  GI50: 19.9 µM
  TGI: 49 µM
UACC-62 melanoma
  GI50: 11.2 µM
  TGI: 24.9 µM
UO-31 renal
  GI50: 4.59 µM
  TGI: 21.5 µM
